Here are results for five molecules from patent US20070264202A1, “Pharmaceutical Composition Comprising an Isomer of Betamimetic Agent and an Anti-Cholinergic Agent” (CIPLA LIMITED, priority 2004, published 2007).

One data set deals with beta-adrenoreceptor. As to conditions: in-vitro studies, salbutamol enantiomers; cited from earlier work.
For data set [1] the following is noted: cited from earlier work.
Data set [2] can be described thus: Flow, suspension and dispersion characteristics. The class given is physicochemical. As to conditions: compared with the racemate.
The conditions of data set [3]: compared with the racemate; cited from earlier work.
Data set [4] has as its system subjects with stable mild to moderate bronchial asthma. As to the kind of experiment: Randomized double-blind, single-dose, crossover study of bronchodilator responses via metered dose inhaler. The format is in vivo. As to conditions: monitored over 6 hours. As for the experimental part:
A study was conducted to compare bronchodilator responses to levosalbutamol sulphate and racemic salbutamol sulphate administered via metered dose inhaler in a randomized double-blind, single-dose, crossover study. In this study single doses of 100 mcg levosalbutamol sulphate and 200 mcg racemic salbutamol sulphate were administered via MDI in subjects with stable mild to moderate bronchial asthma, who were then monitored over a period of 6 hours. […] Thus, it is clear from the study that a reduced dose of levosalbutamol sulphate is required compared to racemic salbutamol sulphate to have the same therapeutic effect.

Regarding `CC(C)(C)NC[C@@H](O)c1ccc(O)c(CO)c1` (single isomer, unassigned) [S-isomer], the “affinity for the beta-adrenoreceptor” value in the data set with beta-adrenoreceptor is on record as “markedly less affinity”. As for `COc1ccc(C[C@@H](C)NC[C@H](O)c2ccc(O)c(NC=O)c2)cc1` [R,R formoterol], the “activity relative to S,S-isomer or any other available isomer” value in data set [1] is recorded as 1000 times. As for `CC(C)(C)NC[C@H](O)c1ccc(O)c(CO)c1` [levosalbutamol], in data set [2], the flow property entry is “more free flowing than the racemate”; the “suspension and dispersion characteristics” value was “better suspension and dispersion characteristics”. Moreover, the bronchodilatory effects result in data set [3] was “greater bronchodilatory effects than the racemate”.

Regarding levosalbutamol sulphate, the bronchodilator response result in data set [4] (single dose 100 mcg via MDI, compared with 200 mcg racemic salbutamol sulphate) is “equivalent time-dependant bronchodilator responses”.

On to “salbutamol sulphate [racemic salbutamol sulphate]”, for which the bronchodilator response entry in data set [4] (single dose 200 mcg via MDI, compared with 100 mcg levosalbutamol sulphate) is “equivalent time-dependant bronchodilator responses”.
